# From US8106197B2, “Aminoheteroaryl compounds as protein kinase inhibitors” (Pfizer Inc., priority 2003, dated 2012)
# Target: T1, GST fusion protein containing the Met kinase domain (Homo sapiens, UniProt P08581)
# T1 construct: Purified GST fusion protein containing the Met kinase domain, SUGEN, Inc
# Test: MET transphosphorylation assay (ELISA, poly(glu-tyr) substrate)
# Format: biochemical
# Conditions: not given
# T1 sequence (P08581 1078-1345 limits assumed): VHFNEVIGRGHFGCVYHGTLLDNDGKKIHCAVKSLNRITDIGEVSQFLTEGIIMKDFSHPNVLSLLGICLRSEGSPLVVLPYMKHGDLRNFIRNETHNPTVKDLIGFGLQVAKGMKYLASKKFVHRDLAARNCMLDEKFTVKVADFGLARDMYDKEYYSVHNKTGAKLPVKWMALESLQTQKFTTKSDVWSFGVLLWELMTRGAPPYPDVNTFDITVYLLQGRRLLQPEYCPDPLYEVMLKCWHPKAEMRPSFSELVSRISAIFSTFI
row,SMILES,IC50 [µM]
1,"Nc1ncc(-c2ccccc2)cc1OCc1c(Cl)cccc1Cl [Example I-9, 3-(2,6-Dichloro-benzyloxy)-5-phenyl-pyridin-2-ylamine]",3.9

# Target: T2, HGFR (Homo sapiens, UniProt P08581)
# T2 construct: purchased Upstate 14-526
# T2 sequence (P08581 974-1390 limits assumed): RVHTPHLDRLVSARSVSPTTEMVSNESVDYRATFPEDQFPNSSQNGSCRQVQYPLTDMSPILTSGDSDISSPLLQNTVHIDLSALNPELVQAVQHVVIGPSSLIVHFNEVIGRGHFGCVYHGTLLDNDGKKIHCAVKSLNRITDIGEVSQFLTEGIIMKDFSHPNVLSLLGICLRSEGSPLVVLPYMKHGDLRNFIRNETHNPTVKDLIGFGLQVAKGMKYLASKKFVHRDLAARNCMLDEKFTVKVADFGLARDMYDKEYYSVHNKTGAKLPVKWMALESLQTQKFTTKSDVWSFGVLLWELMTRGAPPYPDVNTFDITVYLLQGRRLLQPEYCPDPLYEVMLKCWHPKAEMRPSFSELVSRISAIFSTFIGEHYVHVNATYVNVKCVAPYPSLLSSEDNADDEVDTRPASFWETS
# Test: HGFR continuous-coupled spectrophotometric assay
# Format: biochemical
# Conditions: not given
row,SMILES,% inhibition
1,Nc1ncc(-c2ccc(C(=O)N3CCC(N4CCCC4)CC3)cc2)cc1OCc1cccnc1,% inhibition = 17
2,Cc1cnc2nc(COc3cc(-c4ccc(C(=O)N5CCC(N6CCCC6)CC5)cc4)cnc3N)nn2c1,% inhibition = 17
3,Nc1ncc(-c2ccc(C(=O)N3CCC(N4CCCC4)CC3)cc2)cc1OCc1csc(-c2ccc(C(F)(F)F)cc2)n1,% inhibition = 21
4,Cn1nc(C(F)(F)F)c2cc(COc3cc(-c4ccc(C(=O)N5CCC(N6CCCC6)CC5)cc4)cnc3N)sc21,% inhibition = 14
5,Nc1nc(COc2cc(-c3ccc(C(=O)N4CCC(N5CCCC5)CC4)cc3)cnc2N)nc(Nc2ccccc2)n1,% inhibition = 9
6,Nc1ncc(-c2ccc(C(=O)N3CCC(N4CCCC4)CC3)cc2)cc1OCc1cc(Cl)ccc1Cl,% inhibition = 26
7,Cc1ccc(F)c(COc2cc(-c3ccc(C(=O)N4CCC(N5CCCC5)CC4)cc3)cnc2N)c1F,% inhibition = 51
8,Cc1ccc(-c2nnc(COc3cc(-c4ccc(C(=O)N5CCC(N6CCCC6)CC5)cc4)cnc3N)o2)cc1,% inhibition = 18
9,Nc1ncc(-c2ccc(C(=O)N3CCC(N4CCCC4)CC3)cc2)cc1OCc1nc2ccc(Cl)cc2[nH]1,% inhibition = 16
10,Nc1ncc(-c2ccc(C(=O)N3CCC(N4CCCC4)CC3)cc2)cc1OCc1nc2cc(C(F)(F)F)ccc2s1,% inhibition = 34
11,Nc1ncc(-c2ccc(C(=O)N3CCC(N4CCCC4)CC3)cc2)cc1OCc1ccc(Cl)cc1,% inhibition = 15
12,Nc1ncc(-c2ccc(C(=O)N3CCC(N4CCCC4)CC3)cc2)cc1OCc1ccc(C(F)(F)F)nc1,% inhibition = 13
13,Nc1ncc(-c2ccc(C(=O)N3CCC(N4CCCC4)CC3)cc2)cc1OCc1ccccc1-c1ccccc1,% inhibition = 22
14,Cc1cc(COc2cc(-c3ccc(C(=O)N4CCC(N5CCCC5)CC4)cc3)cnc2N)no1,% inhibition = 16
15,Cc1ccn2cc(COc3cc(-c4ccc(C(=O)N5CCC(N6CCCC6)CC5)cc4)cnc3N)nc2c1,% inhibition = 18
16,Nc1ccc(-c2ccc(C(=O)N3CCC(N4CCCC4)CC3)cc2)cc1OC1OC(=O)c2ccccc21 (stereo not drawn),% inhibition = 4

# Continued, values first:
row,% inhibition,SMILES
1,% inhibition = 15,COc1cccc(COc2cc(-c3ccc(C(=O)N4CCC(N5CCCC5)CC4)cc3)cnc2N)c1
2,% inhibition = 12,Nc1ncc(-c2ccc(C(=O)N3CCC(N4CCCC4)CC3)cc2)cc1OCc1cc(F)cc(C(F)(F)F)c1
3,% inhibition = 11,Nc1ncc(-c2ccc(C(=O)N3CCC(N4CCCC4)CC3)cc2)cc1OCc1ccccc1CS(=O)(=O)c1ccccc1
4,% inhibition = 13,Nc1ncc(-c2ccc(C(=O)N3CCC(N4CCCC4)CC3)cc2)cc1OCc1cccc(C(=O)NC2CCN(Cc3ccccc3)CC2)c1
5,% inhibition = 10,Nc1ncc(-c2ccc(C(=O)N3CCC(N4CCCC4)CC3)cc2)cc1OCc1cccc(C(=O)NCc2ccncc2)c1
6,% inhibition = 39,Cc1ccc(COc2cc(-c3ccc(C(=O)N4CCC(N5CCCC5)CC4)cc3)cnc2N)c(F)c1F
7,% inhibition = 24,Nc1ncc(-c2ccc(C(=O)N3CCC(N4CCCC4)CC3)cc2)cc1OCc1cccc(Br)c1
8,% inhibition = 27,Cc1cc(COc2cc(-c3ccc(C(=O)N4CCC(N5CCCC5)CC4)cc3)cnc2N)ccc1F
9,% inhibition = 13,Nc1ncc(-c2ccc(C(=O)N3CCC(N4CCCC4)CC3)cc2)cc1OCc1cccc(-c2ccnc(Br)n2)c1
10,% inhibition = 9,Nc1ncc(-c2ccc(C(=O)N3CCC(N4CCCC4)CC3)cc2)cc1OCc1cncc2ccccc12
11,% inhibition = 29,Cc1ccc(F)cc1COc1cc(-c2ccc(C(=O)N3CCC(N4CCCC4)CC3)cc2)cnc1N
12,% inhibition = 17,Nc1ncc(-c2ccc(C(=O)N3CCC(N4CCCC4)CC3)cc2)cc1OCc1ccc(S(N)(=O)=O)cc1

# Same assay, conditions: Table 3; Ki(μM) or I(%); test concentration not given
row,I(%),SMILES
1,3,CC(Oc1cc(-c2ccc(C(=O)N3C[C@@H](C)N[C@@H](C)C3)cc2)cnc1N)c1ccccc1C(F)(F)F (stereo partly drawn) [Example I-616]
2,7,"Nc1ncc(-c2ccc(C(=O)N3CCC(N4CCCC4)CC3)cc2)cc1OCC1CCCCC1 [Example I-628, [4-(6-Amino-5-cyclohexylmethoxy-pyridin-3-yl)-phenyl]-(4-pyrrolidin-1-yl-piperidin-1-yl)-methanone]"
3,3,CC(Oc1cc(-c2ccc(C(=O)N3CCC(N4CCCC4)CC3)cc2)cnc1N)c1ccc(C(=O)NC2CCN(Cc3ccccc3)CC2)cc1 (stereo not drawn) [Example I-631]
4,2,"Cc1cc(C)c(COc2cc(-c3ccc(C(=O)N4CCC(N5CCCC5)CC4)cc3)cnc2N)c(C)c1 [Example I-653, {4-[6-Amino-5-(2,4,6-trimethyl-benzyloxy)-pyridin-3-yl]-phenyl}-(4-pyrrolidin-1-yl-piperidin-1-yl)-methanone]"

# Same assay, conditions: Table 5; percent c-MET inhibition at 50 nM
row,SMILES,inhibition at 0.05 µM [%]
1,CC(Oc1cc(-c2ccc(C(=O)NC(C)C(O)c3ccccc3)cc2)cnc1N)c1c(Cl)ccc(F)c1Cl (stereo not drawn),69
2,CC(Oc1cc(-c2ccc(C(=O)N3CCNC(=O)C3C)cc2)cnc1N)c1c(Cl)ccc(F)c1Cl (stereo not drawn),86
3,CC1CCCN(C(=O)c2ccc(-c3cnc(N)c(OC(C)c4c(Cl)ccc(F)c4Cl)c3)cc2)C1 (stereo not drawn),65
4,COc1ccccc1CC(C)N(C)C(=O)c1ccc(-c2cnc(N)c(OC(C)c3c(Cl)ccc(F)c3Cl)c2)cc1 (stereo not drawn),55

# More lines, now with the values ahead:
row,inhibition at 0.05 µM [%],SMILES
1,79,CC(Oc1cc(-c2ccc(C(=O)NC[C@@H](C)O)cc2)cnc1N)c1c(Cl)ccc(F)c1Cl (stereo partly drawn)
2,59,CCC(COC)NC(=O)c1ccc(-c2cnc(N)c(OC(C)c3c(Cl)ccc(F)c3Cl)c2)cc1 (stereo not drawn)

# Same assay, conditions: Table 5; percent c-MET inhibition at 50 nM; 0.05 µM
row,% inhibition,SMILES
1,% inhibition = 72,CC(Oc1cc(-c2ccc(C(=O)N[C@H]3CC[C@H](O)CC3)cc2)cnc1N)c1c(Cl)ccc(F)c1Cl (stereo partly drawn) [drawing 1011]

# Same assay, conditions: Table 6; percent c-MET inhibition at 1 μM; read-out: % inhibition
row,SMILES,inhibition at 1 µM [%]
1,Nc1ncc(C(=O)NCCc2c[nH]c3ccc(Cl)cc23)cc1OCc1c(Cl)cccc1Cl,36
2,Nc1ncc(C(=O)NCc2ccc(C(F)(F)F)nc2)cc1OCc1c(Cl)cccc1Cl,17
3,CN(C)C(CNC(=O)c1cnc(N)c(OCc2c(Cl)cccc2Cl)c1)c1cccnc1 (stereo not drawn),18
4,CCN(CC)CC1(O)CCN(C(=O)c2cnc(N)c(OCc3c(Cl)cccc3Cl)c2)CC1,71
5,Nc1ncc(C(=O)NCc2ccc(OC(F)(F)F)cc2)cc1OCc1c(Cl)cccc1Cl,24
6,CC(O)CCNC(=O)c1cnc(N)c(OCc2c(Cl)cccc2Cl)c1 (stereo not drawn),35
7,Nc1ncc(C(=O)NCCc2cccc(O)c2)cc1OCc1c(Cl)cccc1Cl,17
8,Nc1ncc(C(=O)NC(CO)c2cccnc2)cc1OCc1c(Cl)cccc1Cl (stereo not drawn),22
9,Nc1ncc(C(=O)N[C@@H]2CCCC[C@H]2CO)cc1OCc1c(Cl)cccc1Cl,24
10,Nc1ncc(C(=O)NCc2ccc(S(N)(=O)=O)cc2)cc1OCc1c(Cl)cccc1Cl,30
11,N#CC1(c2ccccc2)CCN(C(=O)c2cnc(N)c(OCc3c(Cl)cccc3Cl)c2)CC1,37
12,CCC(CC)CN1CCC2(CC1)CC(NC(=O)c1cnc(N)c(OCc3c(Cl)cccc3Cl)c1)CO2 (stereo not drawn),74
13,Nc1ncc(C(=O)NCc2ccc(F)cc2)cc1OCc1c(Cl)cccc1Cl,32
14,Nc1ncc(C(=O)N2CCC3(CC2)CC(CCc2ccnnc2)CO3)cc1OCc1c(Cl)cccc1Cl (stereo not drawn),37
15,Nc1ncc(C(=O)N2CCC(Cc3cccc(CO)c3)CC2)cc1OCc1c(Cl)cccc1Cl,11
16,CN(C)CCNC(=O)c1cnc(N)c(OCc2c(Cl)cccc2Cl)c1,29
17,Nc1ncc(C(=O)N2CCC(O)(Cc3ccccc3)CC2)cc1OCc1c(Cl)cccc1Cl,62
18,CC(C)OCCNC(=O)c1cnc(N)c(OCc2c(Cl)cccc2Cl)c1,46
19,NC(=O)CCNC(=O)c1cnc(N)c(OCc2c(Cl)cccc2Cl)c1,28

# More lines, now with the values ahead:
row,inhibition at 1 µM [%],SMILES
1,33,Nc1ncc(C(=O)N2CCCCC2CCO)cc1OCc1c(Cl)cccc1Cl (stereo not drawn)
2,34,Nc1ncc(C(=O)NCCc2ccc(O)cc2)cc1OCc1c(Cl)cccc1Cl
3,72,Nc1ncc(C(=O)N2CCC(Cc3cnccn3)CC2)cc1OCc1c(Cl)cccc1Cl
4,24,Nc1ncc(C(=O)NCc2ncccc2O)cc1OCc1c(Cl)cccc1Cl
